The structures appear in SMILES notation.

The subject of one assay is breast cancer cell lines. In words: Proliferation of breast cancer cell lines. It is filed as cell-based. The source says:
Protective attributes of NR0B2 are likely due to its expression in myeloid cells. […] Among human PBMCs, various subtypes of dendritic cells (DCs) and monocyte populations had elevated expression of NR0B2.

For assay [1], the system named is dendritic cells from MMTV-PyMT tumors. Briefly: DCs (CD11B+; CD11C+) isolated from MMTV-PyMT tumors, treated ex vivo. It is filed as cell-based, mouse. The source says: FIG. 3A-3F. DSHN, a tool small molecule agonist of NR0B2 reduces macrophage/dendritic cell induced Treg expansion and tumor growth in murine models. […] (B) Dendritic cells (left-CD11B^+; CD11C^+) and CD4^+ T cells (right) were isolated from MMTV-PyMT tumors by FACS, and treated with vehicle or DSHN for 3d. The resulting frequency of Treg (CD4^+; CD25^+; FoxP3^+) was quantified by flow cytometry (right graph), (N=3-5/group, t test). […] The percentage of divided CD8+ T cells in the second round was quantified. (D) DSHN increases efficacy of αPDL1 therapy on orthotopic E0771 tumors. An optimal number of E0771 cells were grafted into FoxP3-EGFP mice and allowed to grow until tumors reached 100 mm^3. Mice were euthanized on day 19 (waterfall plot, Fisher's exact test). (E) DSHN increases efficacy of αPDL1 therapy on orthotopic 4T1 tumors. 4T1 cells were orthotopically grafted into mice and allowed to establish for 5d prior to treatment start. Mice were euthanized on day 16 (waterfall plot, Fisher's exact test). (F) DSHN reduces metastatic outgrowth of 4T1 tumors and enhances efficacy of αPDL1 compared to placebo (p) (2-way ANOVA followed by Šidák's multiple comparison test for day 16). 4T1 cells were grafted intravenously, and lung metastatic lesions allowed to establish for 3d before treatment commenced. At the end of the study, lungs were removed and imaged ex vivo, quantified data indicated (N=10, 1-way ANOVA followed by Newman-Keuls multiple comparison test). Representative luciferase images shown to the right. * or different letters denote P<0.05 using indicated statistical test.
Since myeloid cells are thought to have been uniquely polarized within the tumor microenvironment, and in order to determine whether DSHN could overcome this, we isolated DCs (CD11B^+; CD11C^+) from MMTV-PyMT tumors. […] Cd4^+ T cells expanded in co-culture with DSHN pre-treated BMDMs had decreased suppressive capacity in terms of secondary CD8+ expansion (FIG. 3C).

Another assay has as its target T1, NR0B2 (Homo sapiens, UniProt Q15466).
T1 construct: a reporter assay which makes use of the endogenous cholesterol homeostatic feedback loop; endogenous in cells; host or cells: HepG2
T1 sequence (Q15466 1-257): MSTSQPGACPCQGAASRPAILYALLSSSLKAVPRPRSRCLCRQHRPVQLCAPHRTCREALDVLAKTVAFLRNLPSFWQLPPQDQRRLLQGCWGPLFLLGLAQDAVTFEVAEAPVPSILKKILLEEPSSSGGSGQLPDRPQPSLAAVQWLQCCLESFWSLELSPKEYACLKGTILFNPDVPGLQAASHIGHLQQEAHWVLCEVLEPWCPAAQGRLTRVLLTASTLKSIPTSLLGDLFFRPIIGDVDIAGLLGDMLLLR
Briefly: ABCA1 reporter screen to identify NR0B2 agonists (HepG2). The class given is cell-based. To be noted: HepG2, 50 μM test compound, 1 μM GW3965; pass/fail with respect to DSHN. More on the design: key: ✓: using strict cutoffs with respect to DSHN for passing each metric; X: using strict cutoffs with respect to DSHN for passing each metric. From the text:
(§1) Development of a more efficacious NR0B2 agonist. While DSHN was a useful proof-of-concept small molecule, macrophages required high doses and chronic exposure for robust influences on subsequent Tregs expansion. […] Therefore, we synthesized several derivatives of DSHN and screened them using a reporter assay which makes use of the endogenous cholesterol homeostatic feedback loop, where FXR activation upregulates NR0B2, which then inhibits LXR and its normal induction of ABCA1. We then followed this screen with several others with stringent cutoffs: effect on endogenous ABCA1 and IL1β expression, reduction of Treg expansion in either macrophage or DC co-cultures, and low cellular toxicity (FIG. 5A, Table 4).
Screening to identify NR0B2 agonists. HepG2 cells were co-transfected with ABCA1 renilla reporter plasmid and TK-control firefly luciferase vector at 20:1 using Lipofectamine 3000 reagent according to manufacturer's instructions for 24 hrs. Afterwards, 7000 cells were seeded in to 384 well f-bottom, white plates (Greiner Bio-One). Test compounds were added to the plates in a final working volume of 30 μL (for a final concentration of 50 μM) in presence of DMSO or 1 μM GW3965 and incubated for 20-24 hrs at 37° C. Luciferase activity was measured using the Luc-Pair Duo-Luciferase HT Assay kit (GeneCopoeia, Rockville, MD, USA) by adding luciferase substrates sequentially following manufacturer instructions. Luminescence was measured with 2 s integration times in a microplate reader (BioTek Cytation 5), 15 min after adding each substrate. The addition of reagents to the microplates was timed at each step to match the reading time delays and reading sequence of the microplate reader.

A further assay relates to IL1b mRNA. Briefly: IL1b mRNA reduction in Raw cells. The class given is cell-based. More on the design: key: ✓: using strict cutoffs with respect to DSHN for passing each metric; X: using strict cutoffs with respect to DSHN for passing each metric. To be noted: pass/fail with respect to DSHN.
Source text: as §1

Take `CCN(CC)S(=O)(=O)c1cccc2cc(C(=O)O)c(O)cc12` [DSHN, reference compound]: in the assay on breast cancer cell lines, the “Proliferation of breast cancer cell lines” value is listed as “no effect on proliferation”. In addition, the “Treg expansion, tumor DCs co-cultured with CD4+ T cells” value in assay [1] was “decreased expansion of Treg cells”. Further, the “PD-L1 positivity of tumor DCs” value in assay [1] (cultured with DSHN followed by LPS and IFNγ) was “decreased PD-L1 positivity”. Also, in assay [1] (versus vehicle treated DCs from the same tumor), the “Viability of tumor DCs” value was “increased viability”.

For `CCN(CC)S(=O)(=O)c1cccc2cc(C(=O)OC)c(O)cc12` [DSHN-OMe, Methyl 5-(N,N-diethylsulfamoyl)-3-hydroxy-2-naphthoate], the ABCA1 reporter screen result on NR0B2 is “✓”. Further, the “IL1b mRNA reduction (Raw Cells)” value in the assay with IL1b mRNA was “✓”.
